Results reported in patent US10328077B2 (CELGENE CORPORATION, priority 2016, dated 2019).

Key:
human LSD-1 = human LSD-1 (Homo sapiens (Human), UniProt O60341); assay: In vitro enzyme inhibition assay LSD-1 (TR-FRET); type: biochemical; details: TR-FRET, H3K4me1-biotin labeled peptide
From the text: This assay determines the ability of a test compound to inhibit LSD-1 demethylase activity.
The enzymatic assay of LSD-1 activity is based on Time Resolved-Fluorescence Resonance Energy Transfer (TR-FRET) detection.

[1] = test system: CD11b expression in THP-1 (AML) cells; assay: LSD-1 CD11b cellular assay (flow cytometry); details: Homo sapiens, THP-1, 96 h, read-out: THP-1 IC50

Row | SMILES | IC50 (human LSD-1) [nM] | IC50 [1] [nM]
1 | CN(C)c1ccc(-c2c(-c3ccc(C#N)c(F)c3)nc(N3CCCNCC3)n(C)c2=O)cn1 [Example 63, 4-[2-[1,4]diazepan-1-yl-5-(6-dimethylamino-pyridin-3-yl)-1-methyl-6-oxo-1,6-dihydro-pyrimidin-4-yl]-2-fluoro-benzonitrile] | < 100 | < 100
2 | COc1ccc(-c2c(-c3ccc(C#N)c(F)c3)nc(N3CCCNCC3)n(C)c2=O)cc1F [Example 46, 4-[2-[1,4]diazepan-1-yl-5-(3-fluoro-4-methoxy-phenyl)-1-methyl-6-oxo-1,6-dihydro-pyrimidin-4-yl]-2-fluoro-benzonitrile] | < 100 | < 100
3 | COc1ccc(-c2c(-c3ccc(C#N)c(F)c3)nc(N3CCC(C)(N)CC3)n(C)c2=O)cc1F [Example 32, 4-[2-(4-amino-4-methyl-piperidin-1-yl)-5-(3-fluoro-4-methoxy-phenyl)-1-methyl-6-oxo-1,6-dihydro-pyrimidin-4-yl]-2-fluoro-benzonitrile] | < 100 | < 100
4 | CNC1CCN(c2nc(-c3ccc(C#N)c(F)c3)c(-c3ccc(OC)c(F)c3)c(=O)n2C)CC1 [Example 12, 2-fluoro-4-[5-(3-fluoro-4-methoxy-phenyl)-1-methyl-2-(4-methylamino-piperidin-1-yl)-6-oxo-1,6-dihydro-pyrimidin-4-yl]-benzonitrile] | < 100 | < 100
5 | COc1ccc(-c2c(-c3ccc(C#N)c(F)c3)nc(NC[C@H]3CCNC3)n(C)c2=O)cc1 [Example 51, 2-fluoro-4-{5-(4-methoxy-phenyl)-1-methyl-6-oxo-2-[(3S)-(pyrrolidin-3-ylmethyl)-amino]-1,6-dihydro-pyrimidin-4-yl}-benzonitrile] | < 100 | 100 to 1000
6 | CN(C)c1ccc(-c2c(-c3ccc(C#N)cc3)nc(N3CCCNCC3)n(C)c2=O)cn1 [Example 67, 4-[2-[1,4]diazepan-1-yl-5-(6-dimethylamino-pyridin-3-yl)-1-methyl-6-oxo-1,6-dihydro-pyrimidin-4-yl]-benzonitrile] | < 100 | < 100
7 | Cn1c(N2CCC(N)CC2)nc(-c2ccc(C#N)c(F)c2)c(C#CC2CCCC2)c1=O [Example 14, 4-[2-(4-amino-piperidin-1-yl)-5-cyclopentylethynyl-1-methyl-6-oxo-1,6-dihydro-pyrimidin-4-yl]-2-fluoro-benzonitrile] | < 100 | < 100
8 | COc1ccc(-c2c(-c3ccc(C#N)c(F)c3)nc(N3CC[C@H](N)C3)n(C)c2=O)cc1F [Example 29, 4-[2-((3S)-3-amino-pyrrolidin-1-yl)-5-(3-fluoro-4-methoxy-phenyl)-1-methyl-6-oxo-1,6-dihydro-pyrimidin-4-yl]-2-fluoro-benzonitrile] | < 100 | 100 to 1000
9 | CN(C)C1CCN(c2nc(-c3ccc(C#N)c(F)c3)c(-c3ccc4c(cnn4C)c3)c(=O)n2C)CC1 [Example 72, 4-[2-(4-dimethylamino-piperidin-1-yl)-1-methyl-5-(1-methyl-1H-indazol-5-yl)-6-oxo-1,6-dihydro-pyrimidin-4-yl]-2-fluoro-benzonitrile] | < 100 | < 100
10 | COc1ccc(-c2c(-c3ccc(C#N)c(F)c3)nc(N3CC[C@@H](N)C3)n(C)c2=O)cc1F [Example 27, 4-[2-((3R)-3-aminopyrrolidinyl)-5-(3-fluoro-4-methoxyphenyl)-1-methyl-6-oxohydropyrimidin-4-yl]-2-fluorobenzenecarbonitrile] | < 100 | < 100
11 | CCc1ccc(-c2c(-c3ccc(C#N)cc3)nc(N3CCC(N)CC3)n(C)c2=O)cn1 [Example 10, 4-[2-(4-amino-piperidin-1-yl)-5-(6-ethyl-pyridin-3-yl)-1-methyl-6-oxo-1,6-dihydro-pyrimidin-4-yl]-benzonitrile] | < 100 | 100 to 1000
12 | COc1ccc(-c2c(-c3ccc(C#N)c(F)c3)nc(N3CCC(N(C)C)CC3)n(C)c2=O)cn1 [Example 92, 4-[2-[4-(dimethylamino)piperidin-1-yl]-5-(6-methoxypyridin-3-yl)-1-methyl-6-oxopyrimidin-4-yl]-2-fluorobenzonitrile] | < 100 | < 100
13 | COc1ccc(-c2c(-c3ccc(C#N)c(F)c3)nc(NC[C@@H]3CCNC3)n(C)c2=O)cc1 [Example 52, 2-fluoro-4-{5-(4-methoxy-phenyl)-1-methyl-6-oxo-2-[(3R)-(pyrrolidin-3-ylmethyl)-amino]-1,6-dihydro-pyrimidin-4-yl}-benzonitrile] | < 100 | 100 to 1000

Results, then the compound that gave them:

Row | IC50 (human LSD-1) [nM] | IC50 [1] [nM] | SMILES
14 | < 100 | < 100 | Cn1c(N2CCC(N)CC2)nc(-c2ccc(C#N)c(F)c2)c(-c2ccc(N3CCCC3)nc2)c1=O [Example 60, 4-[2-(4-amino-piperidin-1-yl)-1-methyl-6-oxo-5-(6-pyrrolidin-1-yl-pyridin-3-yl)-1,6-dihydro-pyrimidin-4-yl]-2-fluoro-benzonitrile]
15 | < 100 | < 100 | COc1ccc(-c2c(-c3ccc(C#N)c(F)c3)nc(N3CCC[C@H](N)C3)n(C)c2=O)cc1 [Example 31, 4-[2-((3S)-3-amino-piperidin-1-yl)-5-(4-methoxy-phenyl)-1-methyl-6-oxo-1,6-dihydro-pyrimidin-4-yl]-2-fluoro-benzonitrile]
16 | < 100 | < 100 | CCOc1ccc(-c2c(-c3ccc(C#N)c(F)c3)nc(N3CCC(N)CC3)n(C)c2=O)cn1 [Example 94, 4-[2-(4-aminopiperidin-1-yl)-5-(6-ethoxypyridin-3-yl)-1-methyl-6-oxopyrimidin-4-yl]-2-fluorobenzonitrile]
17 | < 100 | < 100 | Cn1c(N2CCC(N)CC2)nc(-c2ccc(C#N)c(F)c2)c(-c2ccc3[nH]ccc3c2)c1=O [Example 73, 4-[2-(4-amino-piperidin-1-yl)-5-(1H-indol-5-yl)-1-methyl-6-oxo-1,6-dihydro-pyrimidin-4-yl]-2-fluoro-benzonitrile]
18 | < 100 | < 100 | CNc1ccc(-c2c(-c3ccc(C#N)c(F)c3)nc(N3CCC(N)CC3)n(C)c2=O)cc1F [Example 91, 4-[2-(4-aminopiperidin-1-yl)-5-[3-fluoro-4-(methylamino)phenyl]-1-methyl-6-oxopyrimidin-4-yl]-2-fluorobenzonitrile]
19 | < 100 | < 100 | Cn1c(N2CCC(N)CC2)nc(-c2ccc(C#N)c(F)c2)c(-c2ccc3cn[nH]c3c2)c1=O [Example 77, 4-[2-(4-amino-piperidin-1-yl)-5-(1H-indazol-6-yl)-1-methyl-6-oxo-1,6-dihydro-pyrimidin-4-yl]-2-fluoro-benzonitrile]
20 | < 100 | < 100 | COCCOc1ccc(-c2c(-c3ccc(C#N)c(F)c3)nc(N3CCC(N)CC3)n(C)c2=O)cc1 [Example 98, 4-[2-(4-aminopiperidin-1-yl)-5-[4-(2-methoxyethoxy)phenyl]-1-methyl-6-oxopyrimidin-4-yl]-2-fluorobenzonitrile]
21 | < 100 | < 100 | Cn1c(N2CCC(N)CC2)nc(-c2ccc(C#N)c(F)c2)c(-c2ccc(Cl)cc2)c1=O [Example 106, 4-[2-(4-aminopiperidin-1-yl)-5-(4-chlorophenyl)-1-methyl-6-oxopyrimidin-4-yl]-2-fluorobenzonitrile]
22 | < 100 | < 100 | Cn1c(N2CCC(N)CC2)nc(-c2ccc(C#N)c(F)c2)c(-c2cc(F)cc(F)c2)c1=O [Example 103, 4-[2-(4-aminopiperidin-1-yl)-5-(3,5-difluorophenyl)-1-methyl-6-oxopyrimidin-4-yl]-2-fluorobenzonitrile]
23 | < 100 | < 100 | CN(C)c1ccc(-c2c(-c3ccc(C#N)c(F)c3)nc(N3CCC(N)CC3)n(C)c2=O)cn1 [Example 57, 4-[2-(4-amino-piperidin-1-yl)-5-(6-dimethylamino-pyridin-3-yl)-1-methyl-6-oxo-1,6-dihydro-pyrimidin-4-yl]-2-fluoro-benzonitrile]
24 | < 100 | < 100 | COc1ccc(-c2c(-c3ccc(C#N)c(F)c3)nc(N3CC[C@H](N)[C@H](F)C3)n(C)c2=O)cc1 [Example 79, 4-[2-((4S, 3R)-4-amino-3-fluoro-piperidin-1-yl)-5-(4-methoxy-phenyl)-1-methyl-6-oxo-1,6-dihydro-pyrimidin-4-yl]-2-fluoro-benzonitrile]
25 | < 100 | < 100 | Cn1c(N2CCC(N)CC2)nc(-c2ccc(C#N)c(F)c2)c(-c2ccc(CO)cc2)c1=O [Example 100, 4-[2-(4-aminopiperidin-1-yl)-5-[4-(hydroxymethyl)phenyl]-1-methyl-6-oxopyrimidin-4-yl]-2-fluorobenzonitrile]
26 | < 100 | < 100 | Cn1c(N2CCC(N)CC2)nc(-c2ccc(C#N)c(F)c2)c(-c2ccc(F)c(F)c2)c1=O [Example 104, 4-[2-(4-aminopiperidin-1-yl)-5-(3,4-difluorophenyl)-1-methyl-6-oxopyrimidin-4-yl]-2-fluorobenzonitrile]
27 | < 100 | < 100 | Cn1c(N2CCC(N)CC2)nc(-c2ccc(C#N)c(F)c2)c(-c2ccc(CCO)cc2)c1=O [Example 99, 4-[2-(4-aminopiperidin-1-yl)-5-[4-(2-hydroxyethyl)phenyl]-1-methyl-6-oxopyrimidin-4-yl]-2-fluorobenzonitrile]
28 | < 100 | < 100 | CNC1CCN(c2nc(-c3ccc(C#N)c(F)c3)c(-c3ccc(OC)cc3)c(=O)n2C)CC1 [Example 11, 2-fluoro-4-[5-(4-methoxy-phenyl)-1-methyl-2-(4-methylamino-piperidin-1-yl)-6-oxo-1,6-dihydro-pyrimidin-4-yl]-benzonitrile]
29 | < 100 | < 100 | Cn1c(N2CCC(N)CC2)nc(-c2ccc(C#N)c(F)c2)c(-c2ccc3ccn(C)c3c2)c1=O [Example 76, 4-[2-(4-amino-piperidin-1-yl)-1-methyl-5-(1-methyl-1H-indol-6-yl)-6-oxo-1,6-dihydro-pyrimidin-4-yl]-2-fluoro-benzonitrile]
